Measurements published in article PMC7335202, “A quaternary ammonium silane antimicrobial triggers bacterial membrane and biofilm destruction” (Scientific Reports, 2020).

Biological target: T1, Sortase A (Streptococcus mutans, UniProt Q8CM62)
T1 construct: gene srtA
T1 sequence (Q8CM62 1-246): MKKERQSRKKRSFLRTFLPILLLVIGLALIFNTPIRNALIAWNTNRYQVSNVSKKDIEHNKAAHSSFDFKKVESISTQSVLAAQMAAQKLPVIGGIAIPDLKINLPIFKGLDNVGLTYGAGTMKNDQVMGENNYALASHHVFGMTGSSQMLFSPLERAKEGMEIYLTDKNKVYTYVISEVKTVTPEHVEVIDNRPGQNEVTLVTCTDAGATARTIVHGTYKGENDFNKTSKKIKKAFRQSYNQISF
Test: fluorescent peptide (Dabcyl-QALPETGEE-Edans) cleavage assay with purified sortase A; positive control inhibitor
Format: biochemical

O=C(O)c1cc[c]([Hg][OH])cc1 [pHMB, ρ-hydroxymercuribenzoic acid]
IC50: 24.5 ± 4.1 µM
